Assay results: the NIST ThermoML archive (doi:10.1021/je9001027)
Numbers after ± are expanded uncertainties.

What was measured:
[1] = 101 kPa, Liquid
[2] = wn = mass fraction of the nth substance listed; conditions: 101 kPa, Liquid
[3] = cn = amount concentration of the nth substance listed, in mol/dm3; conditions: 101 kPa, Liquid

C[S+](C)[O-] [dimethyl sulfoxide]
[1]
Conditions	mass density [kg/m3]	viscosity [mPa·s]
298.15 K	1095.41 ± 9	1.966 ± 0.18
303.15 K	1090.13 ± 9.3	1.809 ± 0.17
308.15 K	1085.38 ± 9.7	1.652 ± 0.15
313.15 K	1080.58 ± 10	1.559 ± 0.15
318.15 K	1074.5 ± 10	1.488 ± 0.14

C[S+](C)[O-] [dimethyl sulfoxide] + O
[2]
Conditions	mass density, 298.15 K [kg/m3]	mass density, 303.15 K [kg/m3]	mass density, 308.15 K [kg/m3]	mass density, 313.15 K [kg/m3]	mass density, 318.15 K [kg/m3]	viscosity, 298.15 K [mPa·s]	viscosity, 303.15 K [mPa·s]	viscosity, 308.15 K [mPa·s]	viscosity, 313.15 K [mPa·s]	viscosity, 318.15 K [mPa·s]
w1 = 0.2	1024.2 ± 16	1019.7 ± 17	1015.2 ± 18	998.4 ± 18	979.2 ± 18	1.34 ± 0.13	–	1.054 ± 0.1	0.9572 ± 0.095	0.8482 ± 0.086
w1 = 0.4	1053.47 ± 17	1052.47 ± 18	1045.3 ± 18	1040.12 ± 19	1038.01 ± 20	2.221 ± 0.2	2.221 ± 0.2	1.921 ± 0.18	1.618 ± 0.15	1.497 ± 0.14
w1 = 0.5	1067.81 ± 17	1062.43 ± 18	1056.4 ± 18	1048.28 ± 19	1047.52 ± 20	2.807 ± 0.25	2.465 ± 0.22	2.28 ± 0.21	2.14 ± 0.2	1.937 ± 0.18
w1 = 0.6	1082.31 ± 18	1081.11 ± 18	1072.8 ± 19	1065.21 ± 19	1057.1 ± 20	3.421 ± 0.3	3.421 ± 0.3	3.105 ± 0.28	2.846 ± 0.26	2.775 ± 0.25
w1 = 0.7	1087.32 ± 18	1084.92 ± 18	1080.83 ± 19	1075.23 ± 20	1067.12 ± 20	2.357 ± 0.21	–	2.081 ± 0.19	1.927 ± 0.18	1.865 ± 0.17
w1 = 1	1095.41 ± 18	1090.13 ± 18	1085.38 ± 19	1080.58 ± 20	1074.5 ± 20	1.966 ± 0.18	1.809 ± 0.17	1.652 ± 0.15	1.559 ± 0.15	1.488 ± 0.14

[Br-].[Rb+] [rubidium bromide] + C[S+](C)[O-]
[3]
Conditions	mass density, 298.15 K [kg/m3]	mass density, 303.15 K [kg/m3]	mass density, 308.15 K [kg/m3]	mass density, 313.15 K [kg/m3]	mass density, 318.15 K [kg/m3]	viscosity, 298.15 K [mPa·s]	viscosity, 303.15 K [mPa·s]	viscosity, 308.15 K [mPa·s]	viscosity, 313.15 K [mPa·s]	viscosity, 318.15 K [mPa·s]
c1 = 0.011	1096.9 ± 18	1092.54 ± 18	1087.75 ± 19	1087.75 ± 20	1096.42 ± 21	1.997 ± 0.18	1.839 ± 0.17	1.682 ± 0.16	1.587 ± 0.15	1.515 ± 0.14
c1 = 0.02	1098.3 ± 18	1097.71 ± 19	–	1088.77 ± 20	1096.52 ± 21	2.019 ± 0.19	1.861 ± 0.17	–	1.604 ± 0.15	1.531 ± 0.14
c1 = 0.024	–	–	1088.77 ± 19	–	–	–	–	1.701 ± 0.16	–	–
c1 = 0.026	–	1106.91 ± 19	–	–	–	–	1.877 ± 0.17	–	–	–
c1 = 0.027	1100.1 ± 18	–	1088.97 ± 19	–	1096.58 ± 21	2.039 ± 0.19	–	1.712 ± 0.16	–	1.542 ± 0.15
c1 = 0.028	–	–	–	1089.77 ± 20	–	–	–	–	1.615 ± 0.15	–
c1 = 0.03	1100.4 ± 18	1110.93 ± 19	1089.97 ± 19	1089.97 ± 20	1096.6 ± 21	2.047 ± 0.19	1.884 ± 0.17	1.722 ± 0.16	1.62 ± 0.15	1.549 ± 0.15
c1 = 0.046	1102.5 ± 18	–	–	1091.97 ± 20	–	2.085 ± 0.19	–	–	1.659 ± 0.16	–
c1 = 0.056	–	1134.93 ± 20	1091.97 ± 19	–	1096.9 ± 21	–	1.923 ± 0.18	1.759 ± 0.16	–	1.581 ± 0.15

[Br-].[Rb+] [rubidium bromide] + O
[3]
Conditions	mass density, 298.15 K [kg/m3]	mass density, 303.15 K [kg/m3]	mass density, 308.15 K [kg/m3]	viscosity, 298.15 K [mPa·s]	viscosity, 303.15 K [mPa·s]	viscosity, 318.15 K [mPa·s]
c1 = 0.01	996.69 ± 16	996.08 ± 17	989.87 ± 17	0.893 ± 0.09	0.8934 ± 0.09	0.5367 ± 0.059
c1 = 0.013	996.84 ± 16	996.08 ± 17	989.89 ± 17	0.8935 ± 0.09	0.8937 ± 0.09	0.537 ± 0.059
c1 = 0.02	997.03 ± 16	996.14 ± 17	989.99 ± 17	0.8953 ± 0.09	0.8943 ± 0.09	0.5375 ± 0.059
c1 = 0.024	–	–	990.03 ± 17	–	–	0.5378 ± 0.059
c1 = 0.025	997.28 ± 16	996.17 ± 17	–	0.8962 ± 0.09	0.8946 ± 0.09	–
c1 = 0.034	–	–	–	–	–	0.5383 ± 0.059
c1 = 0.035	–	–	990.13 ± 17	–	–	–
c1 = 0.038	997.79 ± 16	996.24 ± 16	–	0.8966 ± 0.09	0.895 ± 0.09	–

O [water] + C[S+](C)[O-]
[2], w2 = 0
Conditions	mass density [kg/m3]	viscosity [mPa·s]
298.15 K	–	0.89 ± 0.089
303.15 K	–	0.8003 ± 0.082
308.15 K	983.66 ± 17	0.7591 ± 0.078
313.15 K	–	0.6214 ± 0.066
318.15 K	–	0.5346 ± 0.059
